Laboratory results taken from patent US9359371B2, “Bicyclic substituted pyrimidine compounds” (Xuanzhu Pharma Co., Ltd., priority 2012, dated 2016).
Like-named read-outs stand apart in the source and are kept apart here. Each block holds one compound with its values, some of them ahead of it.

Key:
[1] = target: PDE-5A enzyme (Homo sapiens (Human), UniProt O76074); experiment: Caliper Mobility-Shift PDE-5A Assay; type: biochemical; conditions: Table 1; Avanafil value is the control
Description: Experiment 1: Measurement of Enzymatic Activity In Vitro
PDE-5A enzyme: humanized PDE-5 enzyme, SignalChem, Cat#93-31G-20.
Method: enzyme assay, Caliper Mobility-Shift PDE-5A Assay:
The test compound was accurately weighed, dissolved in DMSO, mixed thoroughly and formulated into 10 mM.
The maximum final concentration of the compound was 10 μM. The plate was incubated at 30° C. for 1 h, and 20 μL of 70 μM EDTA was then added to stop the reaction. 26 μL of solution of each well was transferred to a 384-well plate. The conversion was read on a EZ reader II. The inhibition rate was calculated by the formula below, and used to calculate IC50 by Prism 5.0 Inhibition rate=[Conversion (ZPE)−Conversion (sample)]×100/[Conversion (ZPE)−Conversion (HPE)]
Note: HPE: control without enzyme; ZPE: control without a test compound

[2] = Pharmacokinetics (PK) in SD rats; type: in vivo; conditions: rat; for AUC(0-inf) / Cmax / Tmax / half-life / bioavailability: SD, plasma; for bioavailability: read-out: F % (absolute bioavailability)
Description: Experiment 9: Assay of Pharmacokinetics (PK) of the Compounds of the Present Invention in SD Rats
Compound 1-54 of the present invention were prepared by the methods described in Example 1 to Example 54 of the present invention.
The control drug Avanafil, of which the structure was stated above, was purchased commercially.
Collection of the rat's blood: The animal was fixed. The tail was warmed with a water bath 10 min before the collection time. About 200 μL of whole blood was collected from the tail vein. The collected blood was collected into anticoagulant tubes containing heparin sodium. The blood samples were centrifuged at 4° C. by 8000 rpm for 6 min to give the plasma samples, which should be prepared within 30 min after the collection of blood. The plasma samples were stored in a freezer of −80° C. until test.
The result output by Analyst 1.5.1 of AB Company was used as the concentration of the tested sample (plasma sample). The mean value, standard deviation, variable coefficient and the like were calculated by Microsoft Excel (except for the result directly output by Analyst 1.5.1). Parameters of PK were calculated by Pharsight Phoenix 6.2 software. Formula for calculating oral bioavailability: F %=AUCinf−po*Doseiv/AUCinf−iv*Dosepo.

[3] = po, intragastric administration, 2 mg/kg
[4] = po, intragastric administration, 5 mg/kg

- IC50 [1]: 47.2 nM
SMILES: COc1ccc(CNc2nc(N3CC4CC4C3CO)ncc2C(=O)N[C@H]2CC[C@H](O)CC2)cc1Cl (stereo partly drawn) [Compound 35, 4-((3-chloro-4-methoxybenzyl)amino)-N-(trans-4-hydroxycyclohexyl)-2-(2-(hydroxymethyl)-3-azabicyclo[3.1.0]hexan-3-yl)pyrimidine-5-formamide]

SMILES: COc1ccc(CNc2nc(N3CCC4(CC4)C3)ncc2C(=O)NCCN2CCOCC2)cc1Cl [Compound 39, 4-((3-chloro-4-methoxybenzyl)amino)-N-(2-morpholinoethyl)-2-(5-azaspiro[2.4]heptan-5-yl)pyrimidine-5-formamide]
- IC50 [1]: 21.4 nM

- IC50 [1]: 33.3 nM
SMILES: COc1ccc(CNc2nc(N3CC4CC4C3CO)ncc2C(=O)NCc2ccccn2)cc1Cl (stereo not drawn) [Compound 37, 4-((3-chloro-4-methoxybenzyl)amino)-2-(2-(hydroxymethyl)-3-azabicyclo[3.1.0]hexan-3-yl)-N-(pyridin-2-ylmethyl)pyrimidine-5-formamide]

- IC50 [1]: 22.6 nM
SMILES: COc1ccc(CNc2nc(N3CCC4(CCC4)C3)ncc2C(=O)NCc2ccccc2)cc1Cl [Compound 28, N-benzyl-4-((3-chloro-4-methoxybenzyl)amino)-2-(6-azaspiro[3.4]octan-6-yl)pyrimidine-5-formamide]

- IC50 [1]: 10.4 nM
SMILES: COc1ccc(CNc2nc(N3CC4CC4C3CO)ncc2C(=O)NCc2ncccn2)cc1Cl (stereo not drawn) [Compound 27, 4-((3-chloro-4-methoxybenzyl)amino)-2-(2-(hydroxylmethyl)-3-azabicyclo[3.1.0]hexan-3-yl)-N-(pyrimidin-2-ylmethyl)pyrimidine-5-formamide]

SMILES: COc1ccc(CNc2nc(N3CCC4(CC4)C3)ncc2C(=O)NCc2ncccn2)cc1Cl [Compound 41, 4-((3-chloro-4-methoxybenzyl)amino)-N-(pyrimidin-2-ylmethyl)-2-(5-azaspiro[2.4]heptan-5-yl)pyrimidine-5-formamide]
- AUC(0-inf) [2, 3]: 67 ng·h/mL
- Cmax [2, 3]: 43.8 ng/mL
- Tmax [2, 3]: 0.5 h
- half-life [2, 3]: 0.91 h
- bioavailability [2, 3]: 17.7%
- AUC(0-inf) ([2]; intravenous injection, 1 mg/kg): 188 ng·h/mL
- half-life ([2]; intravenous injection, 1 mg/kg): 0.83 h
- Cl_obs ([2]; intravenous injection, 1 mg/kg): 89.2 mL/min/kg
- Vss_obs ([2]; intravenous injection, 1 mg/kg): 6.62 L/kg
- IC50 [1]: 22.9 nM

- IC50 [1]: 34.9 nM
SMILES: COc1ccc(CNc2nc(N3CC4CC4C3CO)ncc2C(=O)NCCN2CCOCC2)cc1Cl (stereo not drawn) [Compound 34, 4-((3-chloro-4-methoxybenzyl)amino)-2-(2-(hydroxymethyl)-3-azabicyclo[3.1.0]hexan-3-yl)-N-(2-morpholinoethyl)pyrimidine-5-formamide]

- AUC(0-inf) [2, 3]: 24 ng·h/mL
- Cmax [2, 3]: 6.5 ng/mL
- Tmax [2, 3]: 0.5 h
- half-life [2, 3]: 2.26 h
- bioavailability [2, 3]: 3.5%
- AUC(0-inf) ([2]; intravenous injection, 1 mg/kg): 212 ng·h/mL
- half-life ([2]; intravenous injection, 1 mg/kg): 1.68 h
- Cl_obs ([2]; intravenous injection, 1 mg/kg): 80.2 mL/min/kg
- Vss_obs ([2]; intravenous injection, 1 mg/kg): 12.05 L/kg
- IC50 [1]: 4.63 nM
SMILES: COc1ccc(CNc2nc(N3CC4CC4C3CO)ncc2C(=O)NCc2ccccc2)cc1Cl (stereo not drawn) [Compound 32, N-benzyl-4-((3-chloro-4-methoxybenzyl)amino)-2-(2-(hydroxymethyl)-3-azabicyclo[3.1.0]hexan-3-yl)pyrimidine-5-formamide]

- AUC(0-inf) [2, 4]: 917 ng·h/mL
- Cmax [2, 4]: 156 ng/mL
- Tmax [2, 4]: 4 h
- bioavailability [2, 4]: 25%
- AUC(0-inf) ([2]; intravenous injection, 2 mg/kg): 1500 ng·h/mL
- half-life ([2]; intravenous injection, 2 mg/kg): 1.8 h
- Cl_obs ([2]; intravenous injection, 2 mg/kg): 22.3 mL/min/kg
- Vss_obs ([2]; intravenous injection, 2 mg/kg): 2.33 L/kg
SMILES: COc1ccc(CNc2nc(N3CC4CC4C3)ncc2C(=O)N[C@H]2CC[C@H](O)CC2)cc1C(F)(F)F (stereo partly drawn) [Compound 53, 2-(3-azabicyclo[3.1.0]hexan-3-yl)-N-((trans)-4-hydroxycyclohexyl)-4-((4-methoxy-3-(trifluoromethyl)benzyl)amino)pyrimidine-5-formamide]

- AUC(0-inf) [2, 4]: 1420 ng·h/mL
- Cmax [2, 4]: 200 ng/mL
- Tmax [2, 4]: 4 h
- half-life [2, 4]: 2.7 h
- bioavailability [2, 4]: 40%
- AUC(0-inf) ([2]; intravenous injection, 2 mg/kg): 1430 ng·h/mL
- half-life ([2]; intravenous injection, 2 mg/kg): 2.3 h
- Cl_obs ([2]; intravenous injection, 2 mg/kg): 23.8 mL/min/kg
- Vss_obs ([2]; intravenous injection, 2 mg/kg): 3.87 L/kg
SMILES: CCOc1ccc(CNc2nc(N3CC4CC4C3)ncc2C(=O)N[C@H]2CC[C@H](O)CC2)cc1C(F)(F)F (stereo partly drawn) [Compound 54, 2-(3-azabicyclo[3.1.0]hexan-3-yl)-N-((trans)-4-hydroxycyclohexyl)-4-((4-ethoxy-3-(trifluoromethyl)benzyl)amino)pyrimidine-5-formamide]

SMILES: COc1ccc(CNc2nc(N3CCC4(CC4)C3)ncc2C(=O)NCc2ccccn2)cc1Cl [Compound 40, 4-((3-chloro-4-methoxybenzyl)amino)-N-(pyridin-2-ylmethyl)-2-(5-azaspiro[2.4]heptan-5-yl)pyrimidine-5-formamide]
- AUC(0-inf) [2, 3]: 57 ng·h/mL
- Cmax [2, 3]: 13.9 ng/mL
- Tmax [2, 3]: 0.5 h
- half-life [2, 3]: 3.58 h
- bioavailability [2, 3]: 9.5%
- AUC(0-inf) ([2]; intravenous injection, 1 mg/kg): 205 ng·h/mL
- half-life ([2]; intravenous injection, 1 mg/kg): 2.73 h
- Cl_obs ([2]; intravenous injection, 1 mg/kg): 81.3 mL/min/kg
- Vss_obs ([2]; intravenous injection, 1 mg/kg): 16.40 L/kg
- IC50 [1]: 11.9 nM

- IC50 [1]: 47 nM
SMILES: COc1ncc(CNc2nc(N3CC4CC4C3)ncc2C(=O)NCc2ncccn2)cc1Cl (stereo not drawn) [Compound 25, 2-(3-diazabicyclo[3.1.0]hexan-3-yl)-4-(((5-chloro-6-methoxypyridin-3-yl)methyl)amino)-N-(pyrimidin-2-ylmethyl)pyrimidine-5-formamide]

- IC50 [1]: 17.3 nM
SMILES: COc1ccc(CNc2nc(N3CCC4(CC4)C3)ncc2C(=O)NCc2ccccc2)cc1Cl [Compound 21, N-benzyl-4-((3-chloro-4-methoxybenzyl)amino)-2-(5-azaspiro[2.4]heptan-5-yl)pyrimidine-5-formamide]

- IC50 [1]: 52.4 nM
SMILES: COc1ccc(CNc2nc(N3CCC4(CC3)CC4)ncc2C(=O)N[C@H]2CC[C@H](O)CC2)cc1Cl [Compound 36, 4-((3-chloro-4-methoxybenzyl)amino)-N-(trams-4-hydroxycyclohexyl)-2-(6-azaspiro[2.5]octan-6-yl)pyrimidine-5-formamide]

- AUC(0-inf) [2, 4]: 5840 ng·h/mL
- Cmax [2, 4]: 505 ng/mL
- Tmax [2, 4]: 4 h
- half-life [2, 4]: 4.1 h
- bioavailability [2, 4]: 60%
- AUC(0-inf) ([2]; intravenous injection, 2 mg/kg): 3860 ng·h/mL
- half-life ([2]; intravenous injection, 2 mg/kg): 3.9 h
- Cl_obs ([2]; intravenous injection, 2 mg/kg): 8.67 mL/min/kg
- Vss_obs ([2]; intravenous injection, 2 mg/kg): 2.46 L/kg
SMILES: CCOc1ccc(CNc2nc(N3CC4CC4C3)ncc2C(=O)N[C@H]2CC[C@H](O)CC2)cc1F (stereo partly drawn) [Compound 49, 2-(3-azabicyclo[3.1.0]hexan-3-yl)-4-((3-fluoro-4-ethoxybenzyl)amino)-N-((trans)-4-hydroxycyclohexyl)pyrimidine-5-formamide]

- AUC(0-inf) [2, 4]: 5800 ng·h/mL
- Cmax [2, 4]: 402 ng/mL
- Tmax [2, 4]: 6 h
- half-life [2, 4]: 7.3 h
- bioavailability [2, 4]: 52%
- AUC(0-inf) ([2]; intravenous injection, 2 mg/kg): 4400 ng·h/mL
- half-life ([2]; intravenous injection, 2 mg/kg): 8.8 h
- Cl_obs ([2]; intravenous injection, 2 mg/kg): 7.83 mL/min/kg
- Vss_obs ([2]; intravenous injection, 2 mg/kg): 5.58 L/kg
SMILES: CCOc1ccc(CNc2nc(N3CC4CC4C3)ncc2C(=O)N[C@H]2CC[C@H](O)CC2)cc1C (stereo partly drawn) [Compound 51, 2-(3-azabicyclo[3.1.0]hexan-3-yl)-N-(trans-4-hydroxycyclohexyl)-4-((4-ethoxy-3-methylbenzyl)amino)pyrimidine-5-formamide]

- AUC(0-inf) [2, 3]: 69 ng·h/mL
- Cmax [2, 3]: 12 ng/mL
- Tmax [2, 3]: 1 h
- half-life [2, 3]: 2.95 h
- bioavailability [2, 3]: 12%
- AUC(0-inf) ([2]; intravenous injection, 1 mg/kg): 219 ng·h/mL
- half-life ([2]; intravenous injection, 1 mg/kg): 1.78 h
- Cl_obs ([2]; intravenous injection, 1 mg/kg): 77.2 mL/min/kg
- Vss_obs ([2]; intravenous injection, 1 mg/kg): 10.57 L/kg
SMILES: COc1ccc(CNc2nc(N3CC4CC4C3)ncc2C(=O)NCc2ccccn2)cc1Cl (stereo not drawn) [Compound 2, 2-(3-azabicyclo[3.1.0]hexan-3-yl)-4-((3-chloro-4-methoxybenzyl)amino)-N-(pyridin-2-ylmethyl)pyrimidine-5-formamide]

- IC50 [1]: 26.8 nM
SMILES: COc1ccc(CNc2nc(N3CCC4(CC3)CC4)ncc2C(=O)NCc2ncccn2)cc1Cl [Compound 15, 4-((3-chloro-4-methoxybenzyl)amino)-N-(pyrimidin-2-ylmethyl)-2-(6-azaspiro[2.5]octan-6-yl)pyrimidine-5-formamide]

- AUC(0-inf) [2, 4]: 6000 ng·h/mL
- Cmax [2, 4]: 392 ng/mL
- Tmax [2, 4]: 6 h
- half-life [2, 4]: 8.4 h
- bioavailability [2, 4]: 65%
- AUC(0-inf) ([2]; intravenous injection, 2 mg/kg): 3710 ng·h/mL
- half-life ([2]; intravenous injection, 2 mg/kg): 4.6 h
- Cl_obs ([2]; intravenous injection, 2 mg/kg): 9 mL/min/kg
- Vss_obs ([2]; intravenous injection, 2 mg/kg): 3.02 L/kg
SMILES: CCOc1ccc(CNc2nc(N3CC4CC4C3)ncc2C(=O)N[C@H]2CC[C@H](O)CC2)cc1Cl (stereo partly drawn) [Compound 52, 2-(3-azabicyclo[3.1.0]hexan-3-yl)-4-((3-chloro-4-ethoxybenzyl)amino)-N-((trans)-4-hydroxycyclohexyl)pyrimidine-5-formamide]
